Patent US11607462B2, “Systems and methods for minimally-invasive assessment of toxicity-induced tissue injury” (Northwestern University, priority 2017, dated 2023)

What was measured:
rats [1] = assay: Histopathology of organs and tissues collected after single time point imaging
Description: (§1) The single time point studies were terminal so that they allowed immediate tissue retrieval for cross-validation using histopathological analyses. […] Each animal was injected with about 2 mCi of ^99mTc-duramycin and after 1 hour the SPECT/CT/MRI data were acquired. From each group, the animals were immediately euthanized after imaging. The organs and tissues from three randomly selected individuals were collected, fixed and processed for histopathology.

rats [2] = assay: In vivo single time point SPECT/CT/MRI imaging of ^99mTc-duramycin uptake (toxicity scan)
Description: as §1
A second group of animals was with methotrexate as directed by the literature in an effort to examine whether early changes in toxicity would correlate with increases in ^99mTc-duramycin uptake.

rats [3] = assay: Quantitative ex vivo gamma counting of ^99mTc-duramycin uptake in excised tissues after chemotoxic drug
Description: This initial quantitative study was conducted by determining changes in radioactivity uptake in excised tissues using gamma counting ex vivo. Experiments were designed to survey changes in ^99mTc-duramycin uptake in tissues from treated versus untreated control groups after administration of a single dosage of each chemotherapeutic drug for each population of animals. […] Accordingly, at designated time post-treatment, ^99mTc-duramycin was injected intravenously and each animal was euthanized for tissue collection and gamma counting. This is a standard practice in radionuclide studies that provides precise, quantitative biodistribution data for measuring changes in tracer uptake.
The data can be expressed in two ways—net change in ^99mTc-duramycin uptake per unit tissue in cyclophosphamide-treated tissues relative to the mean value of the non-treated control population (FIG. 1A), and fold changes in ^99mTc-duramycin uptake over the mean of control (1B).
An organ, such as the kidney, consists of different anatomical components (cortex, medulla, hilum), where the in vivo imaging data provide more spatial information by identifying signal changes within the substructures of an organ (see in vivo sections below).
Although the ex vivo gamma counting is a standard practice in radionuclide studies, a notable limitation is that the tissue collection may be prone to sampling errors. In addition, this approach provides limited spatial information in terms of the distribution within an intact organ/tissue.

rats [4] = conditions: cyclophosphamide single dose; each individual normalized to own baseline
Description: This approach involved the acquisition of a baseline scan, prior to drug administration, followed by multiple post-treatment scans spanning the acute phase at 8, 48, 96, and 168 hours. […] In addition, the baseline scan for each animal serves as an internal control. The repeated noninvasive imaging allowed continuous monitoring of tissue changes with individualized data analysis.

[5] = cyclophosphamide single dose, day-2
[6] = cyclophosphamide single dose 80 mg/kg i.p., 2 days

N.N.[Cl][Pt][Cl] [cisplatin]
histopathology of kidney (rats [1]; rat, in vivo): cellular degradation and significantly elevated apoptosis in the cortical region

O=P1(N(CCCl)CCCl)NCCCO1 (stereo not drawn) [cyclophosphamide]
apoptotic index, kidney medulla (rats [1]; [5]): significantly elevated apoptotic index in the local tissue | apoptotic index, thymus (rats [1]; [5]): significantly elevated apoptotic index | histopathology of bones (epiphysis regions, marrow) (rats [1]; [5]): extensive decellularization in the marrow | key tissues with changes in ^99mTc-duramycin uptake (rats [2]; [5]): kidneys—medulla and cortex, spleen, thymus and gut | region of the kidneys affected (rats [2]; [5]): primarily affect the infundibulum of the kidneys | tissues with statistically elevated, relatively low signals (rats [2]; [5]): bones, adipose tissue, heart, lung, muscle, skin and stomach | tissues with highest fold changes in ^99mTc-duramycin uptake (rats [3]; [6]): thymus, adipose tissue, pancreas, brain, right ventricle, liver and bone | tissues with the largest elevation in ^99mTc-duramycin uptake (rats [3]; [6]): kidneys, liver, spleen, thymus, lung, small intestine and bone | tissues with elevated coefficients of variation compared to the baseline (rats [4]): bone, colon, gut, heart, skin, and thymus

CN(Cc1cnc2nc(N)nc(N)c2n1)c1ccc(C(=O)N[C@@H](CCC(=O)O)C(=O)O)cc1 [methotrexate]
histopathology of joints (rats [1]; rat, in vivo): joint degeneration and thrombosis | changes in skin signals (rats [2]; rat, in vivo): non-uniform throughout the body | signals in the joints (rats [2]; rat, in vivo): drastically elevated signals in the joints | tissues with highest changes in terms of fold elevation (rats [2]; rat, in vivo): colon, kidney—medulla, bone, spleen, and kidney—cortex | tissues with the highest signal changes as net ^99mTc-duramycin uptake per unit tissue (rats [2]; rat, in vivo): kidneys and colon | change in ^99mTc-duramycin uptake in tissues (rats [3]; rat, in vivo, 100 mg/kg): notable elevation in ^99mTc-duramycin uptake in a number of tissues | most prominent tissues according to fold changes (rats [3]; rat, in vivo, 100 mg/kg): small intestine, colon, liver, thymus and kidneys | tissues with the highest increase in ^99mTc-duramycin uptake (rats [3]; rat, in vivo, 100 mg/kg): kidneys, small intestine, liver, and colon
